Test results from paper PMC6333288, “The crystal structure of the N-acetylglucosamine 2-epimerase from Nostoc sp. KVJ10 reveals the true dimer” (Acta Crystallographica. Section D, Structural Biology, 2019).
Each block holds one compound with its values, some of them ahead of it.

Columns and labels:
[1] = biological target: T1, nAGE10 (Nostoc sp. KVJ10, UniProt A0A452CSU8); assay: coupled AGE/NAL (AsNAL) reaction, Neu5Ac by thiobarbituric acid assay; assay type: biochemical; settings: HEPES pH 8.0, 25 °C, 1 h
T1 construct: synthetic codon-optimised gene, C-terminal hexahistidine tag (no cleavage described), expressed in E. coli BL21 Star (DE3); dimer by gel filtration; residues Tyr3-Leu391 resolved, 157-164 missing
T1 sequence (A0A452CSU8 entry or part of it): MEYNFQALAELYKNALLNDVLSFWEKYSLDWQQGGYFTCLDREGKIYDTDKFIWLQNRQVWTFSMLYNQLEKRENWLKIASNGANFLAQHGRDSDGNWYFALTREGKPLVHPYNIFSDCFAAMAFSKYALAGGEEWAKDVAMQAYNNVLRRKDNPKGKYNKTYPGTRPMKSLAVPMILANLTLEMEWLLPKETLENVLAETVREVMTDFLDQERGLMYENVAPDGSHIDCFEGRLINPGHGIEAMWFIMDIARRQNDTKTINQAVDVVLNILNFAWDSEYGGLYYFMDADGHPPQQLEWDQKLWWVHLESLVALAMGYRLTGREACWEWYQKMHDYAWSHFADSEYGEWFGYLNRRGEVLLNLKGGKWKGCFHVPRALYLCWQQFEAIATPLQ

[2] = biological target: N-acetylglucosamine 2-epimerase from Nostoc sp. KVJ10 (Nostoc sp. KVJ10); assay: SEC; gel-filtration chromatography on a Superdex 75 10/300 GL column; oligomerization state of purified nAGE10

Compound: Nc1ncnc2c1ncn2[C@@H]1O[C@H](COP(=O)(O)OP(=O)(O)OP(=O)(O)O)[C@@H](O)[C@H]1O [ATP]
coupled AGE/NAL (AsNAL) reaction, Neu5Ac by thiobarbituric acid assay ([1]; 10 mM ATP present versus absent, GlcNAc 15 mM, pyruvate 15 mM, allosteric activator): In the absence of ATP, only a fraction of Neu5Ac could be synthetized from GlcNAc

Compound: CC(=O)N[C@H]1C(O)O[C@H](CO)[C@@H](O)[C@@H]1O (stereo partly drawn) [GlcNAc]
coupled AGE/NAL (AsNAL) reaction, Neu5Ac by thiobarbituric acid assay ([1]; 15 mM GlcNAc, 10 mM ATP, 15 mM pyruvate): The results show that the synthesis of Neu5Ac from GlcNAc is possible

stoichiometry N [2]: 2
Compound: N-acetylglucosamine 2-epimerase from Nostoc sp. KVJ10 (enzyme)
